Test results: ChEMBL document CHEMBL5316320, “Discovery of Novel Indazole Chemotypes as Isoform-Selective JNK3 Inhibitors for the Treatment of Parkinson's Disease” (J Med Chem, 2023)

What was measured:
[1] = target: T1, Mitogen-activated protein kinase 8 (Homo sapiens, UniProt P45983)
[2] = target: Mitogen-activated protein kinase 9 (Homo sapiens, UniProt P45984); test: Inhibition of JNK2 (unknown origin) by kinase profiling assay
[3] = target: T1, Mitogen-activated protein kinase 8; test: Inhibition of JNK1 (unknown origin) by kinase profiling assay
[4] = target: Cyclin-dependent kinase-like 3 (Homo sapiens, UniProt Q8IVW4); test: Inhibition of CDKL3 (unknown origin) by kinase profiling assay
Cyclin-dependent kinase-like 3, sequence (Q8IVW4 whole entry): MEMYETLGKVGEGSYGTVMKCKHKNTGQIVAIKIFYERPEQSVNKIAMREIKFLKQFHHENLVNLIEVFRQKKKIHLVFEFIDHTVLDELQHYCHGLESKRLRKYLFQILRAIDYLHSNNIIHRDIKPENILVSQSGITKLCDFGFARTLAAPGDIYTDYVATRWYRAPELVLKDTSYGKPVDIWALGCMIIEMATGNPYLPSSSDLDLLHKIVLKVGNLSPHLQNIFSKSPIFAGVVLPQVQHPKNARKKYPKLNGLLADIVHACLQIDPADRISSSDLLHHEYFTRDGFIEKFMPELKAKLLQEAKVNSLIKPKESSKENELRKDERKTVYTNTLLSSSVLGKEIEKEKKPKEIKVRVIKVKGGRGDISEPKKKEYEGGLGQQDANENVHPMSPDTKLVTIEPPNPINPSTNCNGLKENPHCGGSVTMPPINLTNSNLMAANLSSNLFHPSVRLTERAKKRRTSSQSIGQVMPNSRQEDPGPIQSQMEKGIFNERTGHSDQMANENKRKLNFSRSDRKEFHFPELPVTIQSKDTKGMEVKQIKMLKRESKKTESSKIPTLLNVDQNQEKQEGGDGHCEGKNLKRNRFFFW

[5] = target: T2, Serine/threonine-protein kinase D3 (Homo sapiens, UniProt O94806); test: Inhibition of PKD3 (unknown origin) by kinase profiling assay
T2 sequence (O94806 whole entry): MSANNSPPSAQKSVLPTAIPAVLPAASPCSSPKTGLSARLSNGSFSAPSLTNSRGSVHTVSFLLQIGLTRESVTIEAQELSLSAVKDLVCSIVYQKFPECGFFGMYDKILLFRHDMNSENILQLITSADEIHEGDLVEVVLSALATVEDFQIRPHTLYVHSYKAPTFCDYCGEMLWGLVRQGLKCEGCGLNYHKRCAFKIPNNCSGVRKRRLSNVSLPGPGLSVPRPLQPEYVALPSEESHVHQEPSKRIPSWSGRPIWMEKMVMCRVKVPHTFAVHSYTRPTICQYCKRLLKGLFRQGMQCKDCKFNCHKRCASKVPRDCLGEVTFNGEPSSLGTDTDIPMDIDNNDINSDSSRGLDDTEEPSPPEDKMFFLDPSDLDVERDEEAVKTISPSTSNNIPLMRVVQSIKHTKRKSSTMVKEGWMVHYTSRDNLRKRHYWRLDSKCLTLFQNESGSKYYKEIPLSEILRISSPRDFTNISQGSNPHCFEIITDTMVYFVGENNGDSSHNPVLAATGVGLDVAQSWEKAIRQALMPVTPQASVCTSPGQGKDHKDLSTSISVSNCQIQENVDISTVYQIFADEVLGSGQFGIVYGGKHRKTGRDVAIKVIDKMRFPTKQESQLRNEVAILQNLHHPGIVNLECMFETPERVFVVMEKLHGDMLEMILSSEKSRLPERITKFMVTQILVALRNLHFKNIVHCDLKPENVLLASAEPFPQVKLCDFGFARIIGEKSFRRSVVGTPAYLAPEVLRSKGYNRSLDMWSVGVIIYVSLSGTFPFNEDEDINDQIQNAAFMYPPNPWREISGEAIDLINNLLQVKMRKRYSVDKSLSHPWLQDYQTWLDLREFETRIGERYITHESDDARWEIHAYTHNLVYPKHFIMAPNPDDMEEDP

[6] = target: Vascular endothelial growth factor receptor 3 (Homo sapiens, UniProt P35916); test: Inhibition of FLT4 (unknown origin) by kinase profiling assay
Vascular endothelial growth factor receptor 3, sequence (P35916 whole entry): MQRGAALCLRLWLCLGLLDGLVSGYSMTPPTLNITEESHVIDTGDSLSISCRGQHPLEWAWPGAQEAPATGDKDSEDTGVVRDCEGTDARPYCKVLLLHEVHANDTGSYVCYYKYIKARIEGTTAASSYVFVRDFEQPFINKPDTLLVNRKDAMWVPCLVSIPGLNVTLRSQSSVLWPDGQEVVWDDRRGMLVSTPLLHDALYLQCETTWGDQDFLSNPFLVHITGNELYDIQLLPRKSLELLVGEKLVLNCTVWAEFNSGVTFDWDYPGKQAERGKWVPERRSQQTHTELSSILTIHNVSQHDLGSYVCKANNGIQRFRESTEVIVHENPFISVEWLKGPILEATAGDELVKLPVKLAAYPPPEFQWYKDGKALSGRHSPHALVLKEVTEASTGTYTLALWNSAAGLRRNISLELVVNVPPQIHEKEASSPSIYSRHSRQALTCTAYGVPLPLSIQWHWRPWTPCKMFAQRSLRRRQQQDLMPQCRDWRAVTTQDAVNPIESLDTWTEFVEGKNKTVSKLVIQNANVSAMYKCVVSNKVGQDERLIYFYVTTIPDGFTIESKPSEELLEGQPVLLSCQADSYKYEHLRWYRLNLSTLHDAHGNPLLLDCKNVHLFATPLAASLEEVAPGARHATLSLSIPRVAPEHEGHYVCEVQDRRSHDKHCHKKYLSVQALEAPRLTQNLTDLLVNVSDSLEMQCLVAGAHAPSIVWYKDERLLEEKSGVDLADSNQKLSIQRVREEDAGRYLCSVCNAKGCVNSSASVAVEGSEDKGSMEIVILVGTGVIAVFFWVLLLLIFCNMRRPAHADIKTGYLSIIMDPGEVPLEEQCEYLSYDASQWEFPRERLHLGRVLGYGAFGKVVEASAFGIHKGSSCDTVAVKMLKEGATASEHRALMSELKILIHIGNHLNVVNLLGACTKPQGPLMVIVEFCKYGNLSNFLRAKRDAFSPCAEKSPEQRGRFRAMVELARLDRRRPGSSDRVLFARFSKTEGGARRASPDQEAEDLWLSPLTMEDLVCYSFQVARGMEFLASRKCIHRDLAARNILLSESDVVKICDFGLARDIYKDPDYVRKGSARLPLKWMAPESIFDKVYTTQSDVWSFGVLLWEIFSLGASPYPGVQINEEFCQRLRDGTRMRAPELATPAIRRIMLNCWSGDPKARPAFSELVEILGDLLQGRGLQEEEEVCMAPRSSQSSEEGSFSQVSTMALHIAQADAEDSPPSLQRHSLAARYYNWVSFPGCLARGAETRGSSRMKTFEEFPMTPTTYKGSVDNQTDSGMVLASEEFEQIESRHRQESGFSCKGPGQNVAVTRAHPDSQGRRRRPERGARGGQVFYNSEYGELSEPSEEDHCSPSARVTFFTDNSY

[7] = target: TRAF2 and NCK-interacting protein kinase (Homo sapiens, UniProt Q9UKE5); test: Inhibition of TNIK (unknown origin) by kinase profiling assay
[8] = target: T3, Dual specificity mitogen-activated protein kinase kinase 4 (Homo sapiens, UniProt P45985); test: Inhibition of MKK4 (unknown origin) by kinase profiling assay
T3 sequence (P45985 whole entry): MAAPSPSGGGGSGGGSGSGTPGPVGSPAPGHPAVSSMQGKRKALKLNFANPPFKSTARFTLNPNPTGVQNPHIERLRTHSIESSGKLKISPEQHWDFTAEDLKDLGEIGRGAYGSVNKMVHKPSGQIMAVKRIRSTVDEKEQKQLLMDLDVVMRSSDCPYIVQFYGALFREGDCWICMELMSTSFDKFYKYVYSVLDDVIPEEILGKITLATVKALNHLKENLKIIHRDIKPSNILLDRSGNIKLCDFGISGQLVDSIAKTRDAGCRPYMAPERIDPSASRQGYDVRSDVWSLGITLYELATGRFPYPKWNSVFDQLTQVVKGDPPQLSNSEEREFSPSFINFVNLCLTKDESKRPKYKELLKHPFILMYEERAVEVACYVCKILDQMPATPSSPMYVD

[9] = target: T4, Dual specificity mitogen-activated protein kinase kinase 7 (Homo sapiens, UniProt O14733); test: Inhibition of MKK7 (unknown origin) by kinase profiling assay
T4 sequence (O14733 whole entry): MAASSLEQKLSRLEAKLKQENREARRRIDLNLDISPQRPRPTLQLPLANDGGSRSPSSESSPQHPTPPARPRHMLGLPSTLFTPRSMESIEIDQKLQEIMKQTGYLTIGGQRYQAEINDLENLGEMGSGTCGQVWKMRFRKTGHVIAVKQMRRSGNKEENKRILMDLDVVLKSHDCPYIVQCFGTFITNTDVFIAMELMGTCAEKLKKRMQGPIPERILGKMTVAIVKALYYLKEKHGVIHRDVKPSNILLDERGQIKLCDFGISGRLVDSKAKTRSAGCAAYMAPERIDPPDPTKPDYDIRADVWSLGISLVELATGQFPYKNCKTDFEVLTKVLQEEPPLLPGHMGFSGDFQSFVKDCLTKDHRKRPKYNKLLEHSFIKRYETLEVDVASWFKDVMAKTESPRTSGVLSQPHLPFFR

[10] = target: Voltage-gated inwardly rectifying potassium channel KCNH2 (Homo sapiens, UniProt Q12809)
Voltage-gated inwardly rectifying potassium channel KCNH2, sequence (Q12809 whole entry): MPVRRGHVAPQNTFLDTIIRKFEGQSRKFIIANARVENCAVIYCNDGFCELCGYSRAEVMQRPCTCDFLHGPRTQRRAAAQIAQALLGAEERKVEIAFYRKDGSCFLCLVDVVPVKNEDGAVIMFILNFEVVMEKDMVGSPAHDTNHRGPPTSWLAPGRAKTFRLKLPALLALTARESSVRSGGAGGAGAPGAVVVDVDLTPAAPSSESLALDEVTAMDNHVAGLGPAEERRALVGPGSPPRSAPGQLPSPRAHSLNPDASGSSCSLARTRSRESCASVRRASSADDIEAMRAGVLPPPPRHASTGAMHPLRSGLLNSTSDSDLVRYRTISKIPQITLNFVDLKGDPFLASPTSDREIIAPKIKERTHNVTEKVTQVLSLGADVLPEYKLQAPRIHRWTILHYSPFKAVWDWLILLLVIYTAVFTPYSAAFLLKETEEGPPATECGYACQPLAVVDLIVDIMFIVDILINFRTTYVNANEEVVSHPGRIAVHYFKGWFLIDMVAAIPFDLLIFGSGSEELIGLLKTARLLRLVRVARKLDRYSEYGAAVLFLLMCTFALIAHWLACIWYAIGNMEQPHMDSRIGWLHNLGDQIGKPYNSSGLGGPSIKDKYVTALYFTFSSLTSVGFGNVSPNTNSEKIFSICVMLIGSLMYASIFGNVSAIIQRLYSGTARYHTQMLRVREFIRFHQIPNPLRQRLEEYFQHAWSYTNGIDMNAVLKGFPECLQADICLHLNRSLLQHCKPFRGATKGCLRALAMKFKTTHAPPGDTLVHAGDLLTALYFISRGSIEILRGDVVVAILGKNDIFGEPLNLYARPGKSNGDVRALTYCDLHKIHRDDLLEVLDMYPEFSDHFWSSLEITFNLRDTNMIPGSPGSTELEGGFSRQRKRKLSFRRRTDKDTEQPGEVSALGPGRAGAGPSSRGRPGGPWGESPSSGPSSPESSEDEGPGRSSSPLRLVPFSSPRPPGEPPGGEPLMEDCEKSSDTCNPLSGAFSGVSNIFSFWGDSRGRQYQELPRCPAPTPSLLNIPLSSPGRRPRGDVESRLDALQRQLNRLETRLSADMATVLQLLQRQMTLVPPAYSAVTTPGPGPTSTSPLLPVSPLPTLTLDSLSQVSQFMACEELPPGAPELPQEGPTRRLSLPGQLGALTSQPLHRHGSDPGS

[11] = target: Mitogen-activated protein kinase 10 (Homo sapiens, UniProt P53779)
Mitogen-activated protein kinase 10, sequence (P53779 whole entry): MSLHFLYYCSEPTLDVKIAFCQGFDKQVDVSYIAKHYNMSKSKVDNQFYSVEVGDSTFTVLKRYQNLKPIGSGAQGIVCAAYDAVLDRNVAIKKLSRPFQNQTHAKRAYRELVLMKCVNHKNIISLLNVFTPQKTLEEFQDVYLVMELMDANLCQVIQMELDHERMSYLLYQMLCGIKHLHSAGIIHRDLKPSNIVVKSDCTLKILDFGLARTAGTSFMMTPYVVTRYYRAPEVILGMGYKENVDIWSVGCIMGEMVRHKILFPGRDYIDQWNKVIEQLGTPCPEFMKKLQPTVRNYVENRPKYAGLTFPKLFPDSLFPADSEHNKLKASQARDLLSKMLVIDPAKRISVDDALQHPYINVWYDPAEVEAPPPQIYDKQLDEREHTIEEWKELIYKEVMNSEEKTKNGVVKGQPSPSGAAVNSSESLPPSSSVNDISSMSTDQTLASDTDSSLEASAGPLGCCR

T1 sequence (P45983 whole entry): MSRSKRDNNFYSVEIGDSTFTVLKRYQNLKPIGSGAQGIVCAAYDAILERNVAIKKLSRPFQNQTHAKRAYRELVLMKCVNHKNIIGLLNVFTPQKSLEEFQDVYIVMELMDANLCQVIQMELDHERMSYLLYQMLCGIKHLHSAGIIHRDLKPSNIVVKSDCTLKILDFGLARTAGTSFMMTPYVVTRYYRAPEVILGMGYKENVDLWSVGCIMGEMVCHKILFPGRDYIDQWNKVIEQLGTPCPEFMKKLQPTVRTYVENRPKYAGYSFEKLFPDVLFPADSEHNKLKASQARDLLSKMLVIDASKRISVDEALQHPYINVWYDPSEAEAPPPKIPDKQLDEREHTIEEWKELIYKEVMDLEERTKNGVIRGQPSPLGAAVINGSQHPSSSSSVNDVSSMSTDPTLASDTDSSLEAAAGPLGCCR
Mitogen-activated protein kinase 9, sequence (P45984 whole entry): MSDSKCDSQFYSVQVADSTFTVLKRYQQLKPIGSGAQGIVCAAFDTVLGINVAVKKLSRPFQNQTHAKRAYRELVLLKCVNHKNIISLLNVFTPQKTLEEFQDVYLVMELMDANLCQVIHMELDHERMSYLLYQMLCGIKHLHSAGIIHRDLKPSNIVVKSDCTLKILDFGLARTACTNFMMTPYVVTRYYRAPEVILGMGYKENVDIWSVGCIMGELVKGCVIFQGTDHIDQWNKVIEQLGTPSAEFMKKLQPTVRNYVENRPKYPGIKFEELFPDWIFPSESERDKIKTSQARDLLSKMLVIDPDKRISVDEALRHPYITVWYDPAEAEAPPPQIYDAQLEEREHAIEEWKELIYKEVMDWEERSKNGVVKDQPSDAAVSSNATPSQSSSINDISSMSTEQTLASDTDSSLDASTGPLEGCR

IC50 [1] [µM] | IC50 [11] [µM] | SMILES | further results
0.0423 |  | O=C1c2ccccc2C2=NNC3=CC=CC1C32 (stereo unspecified) | 
> 10 |  | O=C(c1cccc(CNc2n[nH]c3cccc(Cl)c23)c1)N1CCN(C(=O)c2ccc(Cl)cc2Cl)CC1 | IC50 [2]: 9.27 µM; IC50 [3]: > 10 µM; IC50 [4]: 0.669 µM; IC50 [5]: 0.624 µM; IC50 [6]: 0.423 µM; IC50 [7]: 0.367 µM; IC50 [8]: > 10 µM; IC50 [9]: > 10 µM; IC50 [10]: > 30 µM
> 10 |  | Cc1cccc(Cl)c1C(=O)N1CCN(C(=O)c2ccc(CNc3n[nH]c4ccccc34)cc2)CC1 | 
> 10 | > 10 | O=C(NCCc1ccccc1)c1ccc(CNc2n[nH]c3ccccc23)cc1 | 
7.59 | 4.03 | O=C(c1cccc(CNc2n[nH]c3ccccc23)c1)N1CCN(C(=O)c2ccc(Cl)cc2Cl)CC1 | 
7.66 | 0.253 | O=C(c1ccc(CNc2n[nH]c3ccccc23)cc1)N1CCN(C(=O)c2c(Cl)cccc2C(F)(F)F)CC1 | 
7.82 | 4.3 | O=C(c1cccc(CNc2n[nH]c3ccccc23)c1)N1CCN(C(=O)c2c(F)cccc2Cl)CC1 | 
> 10 |  | COc1ccc(C(=O)N2CCN(C(=O)c3ccc(CNc4n[nH]c5ccccc45)cc3)CC2)c(Cl)c1 | 
7.61 | 0.205 | O=C(c1ccc(CNc2n[nH]c3ccccc23)cc1)N1CCN(C(=O)c2cc(Cl)ccc2Cl)CC1 | 
7.7 | 0.615 | COc1ccc(C(=O)N2CCN(C(=O)c3ccc(CNc4n[nH]c5ccccc45)cc3)CC2)cc1 | 
8 | 0.189 | O=C(c1cccc(CNc2n[nH]c3cccc(F)c23)c1)N1CCN(C(=O)c2ccc(Cl)cc2Cl)CC1 | 
9.06 |  | O=C(NN1CCCCC1)c1ccc(CNc2n[nH]c3ccccc23)cc1 | 
> 10 | 0.588 | Cc1ccc(Cl)c(C(=O)N2CCN(C(=O)c3ccc(CNc4n[nH]c5ccccc45)cc3)CC2)c1 | 
> 10 | 8.03 | O=C(Nc1cc(C(F)(F)F)cc(C(F)(F)F)c1)N1CCN(C(=O)c2ccc(CNc3n[nH]c4ccccc34)cc2)CC1 | 
 | 0.239 | O=C(c1cccc(CNc2n[nH]c3cc(Cl)ccc23)c1)N1CCN(C(=O)c2ccc(Cl)cc2Cl)CC1 | 
8.82 | 0.305 | O=C(c1ccc(Cl)cc1)N1CCN(C(=O)c2ccc(CNc3n[nH]c4ccccc34)cc2)CC1 | 
> 10 | > 10 | Cc1cc(NC(=O)c2ccc(CNc3n[nH]c4ccccc34)cc2)ccc1Cl | 
> 10 | > 10 | O=C(c1cccc(CNc2n[nH]c3c(Cl)cc([N+](=O)[O-])cc23)c1)N1CCN(C(=O)c2ccc(Cl)cc2Cl)CC1 | 

IC50 [1] [µM] | IC50 [11] [µM] | SMILES | further results
> 10 | > 10 | Cn1nc(NCc2cccc(C(=O)N3CCN(C(=O)c4ccc(Cl)cc4Cl)CC3)c2)c2ccccc21 | 
7.8 | 0.927 | O=C(c1ccc(CNc2n[nH]c3ccccc23)cc1)N1CCN(C(=O)c2cccc(C(F)(F)F)c2)CC1 | 
 | 0.279 | O=C(c1ccc(CNc2n[nH]c3ccccc23)cc1)N1CCN(C(=O)c2c(Cl)cccc2Cl)CC1 | 
> 10 | > 10 | O=C(Nc1ccccc1)c1ccc(CNc2n[nH]c3ccccc23)cc1 | 
> 10 | > 10 | COc1ccc(NC(=O)c2ccc(CNc3n[nH]c4ccccc34)cc2)cc1 | 
8.85 | 0.248 | O=C(c1ccc(CNc2n[nH]c3ccccc23)cc1)N1CCN(C(=O)c2ccc(Br)cc2Br)CC1 | 
7.68 | 0.325 | O=C(c1ccc(CNc2n[nH]c3ccccc23)cc1)N1CCN(C(=O)c2ccc(OC(F)(F)F)cc2)CC1 | 
> 10 | > 10 | Cc1cccc2c(NCc3cccc(C(=O)N4CCN(C(=O)c5ccc(Cl)cc5Cl)CC4)c3)n[nH]c12 | 
8.07 | 7.51 | O=C(c1ccc(CNc2n[nH]c3ccccc23)cc1)N1CCCC1 | 
9.87 | 0.282 | O=C(c1ccc(CNc2n[nH]c3ccccc23)cc1)N1CCN(C(=O)c2cc(C(F)(F)F)ccc2Cl)CC1 | 
> 10 | > 10 | O=C(Nc1ccc(Cl)cc1)c1ccc(CNc2n[nH]c3ccccc23)cc1 | 
7.69 | 0.399 | O=C(c1ccc(CNc2n[nH]c3ccccc23)cc1)N1CCN(C(=O)c2ccccc2I)CC1 | 
9.07 | 0.647 | O=C(c1ccc(CNc2n[nH]c3ccccc23)cc1)N1CCN(C(=O)c2ccc(F)cc2Cl)CC1 | 
 | 4.46 | O=C(c1cccc(CNc2n[nH]c3ccccc23)c1)N1CCN(C(=O)c2cc(C(F)(F)F)ccc2F)CC1 | 
7.79 | 0.619 | O=C(Nc1ccccc1Cl)N1CCN(C(=O)c2ccc(CNc3n[nH]c4ccccc34)cc2)CC1 | 
8.28 | 0.394 | O=C(c1ccc(CNc2n[nH]c3ccccc23)cc1)N1CCN(C(=O)c2ccccc2OC(F)(F)F)CC1 | 
8.91 | 0.384 | O=C(c1ccc(CNc2n[nH]c3ccccc23)cc1)N1CCN(C(=O)c2cccc(F)c2Cl)CC1 | 
